Reference: patent US5089623A, “Certain imidate insecticides” (Imperial Chemical Industries Plc, priority 1990, dated 1992)

Columns and labels:
Assay type in all cases: in vivo
[1] = tested on: Beet Armyworm (Spodoptera exigua); test: Beet armyworm test (BAW); conditions: second-instar larvae, five days, percent in solution
Method in brief: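 Sugar beet leaves were dipped 2-3 s in compound diluted in 50-50 acetone-water, dried, then infested with five second-instar larvae in humid dishes. Mortality was scored after five days at concentrations from 0.1% downward. LC50 was taken from dosage-mortality curves as percent compound in solution.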

[2] = tested on: Rice water weevil [Lissorhoptrus oryzophilus (Kuschel)]; test: Rice water weevil test (RWW); conditions: per weevil, topical, female adults, 48 hours
Method: (§1) The compounds in Tables 1 and 2 above were tested for insecticidal activity using the following testing procedures. LC50 values, based on the results of these tests and calculated according to dosage-mortality curves, are expressed in Table 3.
Rice water weevil [Lissorhoptrus oryzophilus (Kuschel)]
Test compounds were diluted in acetone. Droplets (1 ul) of test solutions were applied to the ventral abdomens of ten female adult weevils. The treated weevils were placed in containers with wet cotton balls and rice foliage. The containers were covered and kept at a temperature of about 25° C. Mortality was recorded after 48 hours. […] The LC50 values are expressed below in Table 3 under the heading "RWW" in terms of μg of test compound per weevil.

[3] = tested on: Cabbage Looper [Trichoplusia ni (Hubner)]; test: Cabbage looper test (CL); conditions: second-instar larvae, 3-5 days, percent in solution
[4] = tested on: Housefly [Musca domestica]; test: Housefly insecticidal test (HF); conditions: per 25 female houseflies, 48 hours
[5] = tested on: Tobacco Budworm [Heliothis virescens (Fabricius)] eggs; test: Tobacco budworm egg test (TBW-E); conditions: percent in solution
[6] = tested on: Maize weevil [Sitophilus Zeamais (Motschulsky)]; test: Maize weevil test (MW); conditions: adult weevils, treated corn seeds, 48 hours, percent in solution
Method in brief: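 Adult weevils (10) were placed with four corn seeds that had been dipped 2-3 s in compound dissolved in 50:50 acetone:water, then dried, and held at about 25° C. Mortality was scored at 48 h. LC50 was taken from dosage-mortality curves and expressed as percent compound in solution, from a 0.01% top concentration.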

[7] = tested on: Tobacco Budworm [Heliothis virescens (Fabricius)]; test: Tobacco budworm contact test (TBW-C); conditions: second-instar larvae, 5 days, percent in solution
Method in brief: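 Cotton cotyledons dipped 2–3 s in compound in 50:50 acetone–water, dried, then infested with 5 second-instar larvae and held 5 days at high humidity before scoring mortality.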

[8] = tested on: Aster Leafhopper [Macrosteles fascifrens (Stal)]; test: Aster leafhopper test (LH); conditions: adults/nymphs, 48 hours, percent in solution
[9] = tested on: Black Bean Aphid [Aphis fabae (Scop.)]; test: Black bean aphid test (BBA); conditions: percent of test compound in sprayed solution, 48 hours
Method: as §1
Black Bean Aphid [Aphis fabae (Scop.)]
Nasturtium plants (Tropaeolum sp.) approximately 5 cm tall, were transplanted into sandy loam soil in small cups and infested with 25-50 black bean aphids of mixed ages. Twenty-four hours later they were sprayed to the point of runoff with 50-50 acetone-water solutions of the test compounds. Treated plants were held in the greenhouse and mortality was recorded after 48 hours. Test concentrations ranged from 0.05% downward. The LC-50 value is expressed below in Table 3 under the heading "BBA" in terms of percent of the test compound in the sprayed solution.

| SMILES | LC50 BAW [1] | LC50 RWW [2] | LC50 CL [3] | LC50 HF [4] | LC50 TBW E [5] | LC50 MW [6] | LC50 TBW C [7] | LC50 LH [8] | LC50 BBA [9] |
| --- | --- | --- | --- | --- | --- | --- | --- | --- | --- |
| CC(C)C(=Nc1ccc(F)c(Cl)c1)OCc1cccc(Oc2ccccc2)c1 [Compound 81] | 0.003% | > 0.5 µg | 0.0006% | 4 µg | 0.007% | 0.005% | 0.0009% | 0.0003% | – |
| CC(C)C(=Nc1ccc(F)c(Cl)c1)OCc1ccc(F)c(Oc2ccccc2)c1 [Compound 82] | 0.0025% | 0.086 µg | 0.00018% | 2.5 µg | 0.006% | – | 0.0008% | 0.0001% | 0.00021% |
| CC(C)C(=Nc1ccc(F)c(Cl)c1)OCc1cccc(Oc2ccc(F)cc2)c1 [Compound 89] | 0.009% | > 2.5 µg | 0.00003% | 5 µg | 0.04% | 0.005% | 0.0005% | 0.001% | – |
| CC(C)C(=Nc1ccc2c(c1)OCO2)OCc1cccc(Oc2ccccc2)c1 [Compound 180] | 0.005% | > 2.5 µg | 0.0004% | 2 µg | 0.03% | 0.008% | 0.003% | 0.0015% | – |
| CC(C)C(=Nc1ccc(F)c(Cl)c1)OCc1ccc(F)c(Oc2ccc(F)cc2)c1 [Compound 216] | 0.0007% | 0.067 µg | 0.000007% | 2 µg | 0.005% | 0.0017% | 0.00018% | 0.00025% | – |
| CC(C)C(=Nc1ccc(F)c(Cl)c1)OCc1cccc(Oc2ccc(Cl)cc2)c1 [Compound 239] | 0.005% | > 2.5 µg | 0.00015% | 14 µg | 0.025% | 0.006% | 0.0005% | 0.002% | – |
| CC(C)C(=Nc1ccc(F)c(Cl)c1)OCc1ccc(F)c(Oc2ccc(Cl)cc2)c1 [Compound 267] | 0.0012% | 0.11 µg | 0.00008% | 8.4 µg | 0.015% | 0.0027% | 0.0003% | 0.002% | – |
| CC(C)C(=Nc1ccc(Cl)cc1)OCc1cccc(Oc2ccc(Cl)cc2)c1 [Compound 269] | 0.0024% | > 2.5 µg | 0.0003% | 25 µg | 0.04% | > 0.01% | 0.001% | 0.003% | – |
| CC(C)C(=Nc1ccc(F)c(Br)c1)OCc1ccc(F)c(Oc2ccc(F)cc2)c1 [Compound 273] | 0.0017% | > 2.5 µg | 0.000018% | 7 µg | 0.015% | 0.004% | 0.00025% | 0.0003% | – |
| CC(C)C(=Nc1ccc(F)c(C(F)(F)F)c1)OCc1ccc(F)c(Oc2ccc(F)cc2)c1 [Compound 277] | 0.005% | 0.065 µg | 0.00001% | 4 µg | 0.013% | > 0.01% | 0.0005% | 0.0003% | – |
| CC(C)C(=Nc1ccc(F)c(F)c1)OCc1ccc(F)c(Oc2ccc(F)cc2)c1 [Compound 278] | 0.0012% | 0.085 µg | 0.00002% | 3 µg | 0.008% | 0.0063% | 0.00026% | 0.0003% | – |
| CC(C)C(=Nc1ccc(OC(F)(F)F)cc1)OCc1ccc(F)c(Oc2ccc(F)cc2)c1 [Compound 286] | 0.0004% | 0.09 µg | 0.000024% | 34 µg | 0.005% | 0.0039% | 0.00017% | 0.0006% | – |
| CC(C)C(=Nc1ccc(OC(F)(F)F)cc1)OCc1ccc(F)c(Oc2ccc(Cl)cc2)c1 [Compound 323] | 0.0025% | 0.16 µg | 0.0006% | > 100 µg | 0.045% | 0.0075% | 0.00065% | 0.05% | – |
| CC(C)C(=Nc1ccc(F)c(F)c1F)OCc1ccc(F)c(Oc2ccc(F)cc2)c1 [Compound 349] | > 0.1% | > 2.5 µg | 0.00007% | 4.9 µg | > 0.1% | > 0.01% | 0.0004% | – | > 0.05% |
| CC(C)C(=Nc1ccc(F)c(Cl)c1F)OCc1cccc(Oc2ccc(F)cc2)c1 [Compound 352] | > 0.1% | > 2.5 µg | 0.000065% | 4.6 µg | > 0.1% | 0.0075% | 0.0004% | 0.0004% | – |
| C=CCOc1cccc(COC(=Nc2ccc(F)c(Cl)c2)C(C)C)c1 [Compound 479] | – | – | 0.013% | 66 µg | > 0.1% | > 0.01% | – | > 0.05% | > 0.05% |
| C=CCOc1cccc(COC(=Nc2cccc(C(F)(F)F)c2)C(C)C)c1 [Compound 480] | – | – | 0.01% | > 100 µg | > 0.1% | – | – | – | > 0.05% |
| CC(C)C(=Nc1ccc(C(F)(F)F)cc1)OCc1cccc(Cc2ccccc2)c1 [Compound 535] | – | – | > 0.1% | 41 µg | – | > 0.01% | – | > 0.05% | > 0.05% |
| CC(C)C(=Nc1ccc(F)c(Cl)c1)OCc1cccc(Cc2ccccc2)c1 [Compound 537] | – | – | > 0.1% | 20 µg | – | > 0.01% | – | > 0.05% | > 0.05% |
